This is an account of results in ChEMBL document CHEMBL5370576, “Design, synthesis and biological evaluation of 2,4,6- trisubstituted triazine derivatives as new nonpeptide small-molecule SIRT5 inhibitors” (Bioorg Med Chem, 2023).

For test [1], the target named is T1, NAD-dependent protein deacylase sirtuin-5, mitochondrial (Homo sapiens, UniProt Q9NXA8). As to the kind of experiment: Inhibition of human recombinant SIRT5 (34 to 269 residues) using Ac-Leu-Gly-Ser-Lys (Su)-AMC as fluorogenic substrate incubated for 2 hrs in presence of NAD+ by fluorescence based analysis.
Target sequence in this assay (Q9NXA8 whole entry, the tested form may be a part): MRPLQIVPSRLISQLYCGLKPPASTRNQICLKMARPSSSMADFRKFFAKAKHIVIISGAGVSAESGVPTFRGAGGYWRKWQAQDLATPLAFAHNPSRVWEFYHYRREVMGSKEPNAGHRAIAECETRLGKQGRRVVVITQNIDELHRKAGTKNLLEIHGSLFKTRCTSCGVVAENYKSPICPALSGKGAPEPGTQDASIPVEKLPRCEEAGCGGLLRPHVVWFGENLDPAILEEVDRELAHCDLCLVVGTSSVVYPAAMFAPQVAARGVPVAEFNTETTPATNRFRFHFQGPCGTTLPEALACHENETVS
Test [2] deals with T1, NAD-dependent protein deacylase sirtuin-5, mitochondrial. As to the kind of experiment: Inhibition of human recombinant SIRT5 (34 to 269 residues) using Ac-Leu-Gly-Ser-Lys (Su)-AMC as fluorogenic substrate incubated for 2 hrs in presence of NAD+ at 50 uM by fluorescence based analysis.
Target sequence in this assay (Q9NXA8 whole entry, the tested form may be a part): as above
The target is the same in test [3]. As to the kind of experiment: Binding affinity to human recombinant SIRT5 (34 to 269 residues) assessed as thermal stabilization by measuring change in melting temperature at 100 uM and measured after 10 mins by SYPRO orange dye based thermal shift assay.
Target sequence in this assay (Q9NXA8 37-310 limits assumed): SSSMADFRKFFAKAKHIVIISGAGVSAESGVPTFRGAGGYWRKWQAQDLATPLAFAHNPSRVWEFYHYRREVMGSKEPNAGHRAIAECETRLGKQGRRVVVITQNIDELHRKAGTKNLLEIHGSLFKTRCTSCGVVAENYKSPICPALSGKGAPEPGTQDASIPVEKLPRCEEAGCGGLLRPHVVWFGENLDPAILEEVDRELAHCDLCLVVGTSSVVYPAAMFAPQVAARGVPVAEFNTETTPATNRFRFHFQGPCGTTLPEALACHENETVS
The target is the same in test [4]. As to the kind of experiment: Competitive inhibition of human recombinant SIRT5 (34 to 269 residues) incubated for 2 hrs in presence of 11 uM of fluorogenic substrate Ac-Leu-Gly-Ser-Lys (Su)-AMC by fluorescence based analysis.
Target sequence in this assay (Q9NXA8 whole entry, the tested form may be a part): as the sequence (Q9NXA8 whole entry, the tested form may be a part) above
For test [5] the target is unchanged. As to the kind of experiment: Inhibition of human recombinant SIRT5 (34 to 269 residues) using Ac-Leu-Gly-Ser-Lys (Su)-AMC as fluorogenic substrate incubated for 2 hrs in presence of NAD+ at 400 uM by fluorescence based analysis.
Target sequence in this assay (Q9NXA8 whole entry, the tested form may be a part): as above
The target is the same in test [6]. As to the kind of experiment: Competitive inhibition of human recombinant SIRT5 (34 to 269 residues) incubated for 2 hrs in presence of 300 uM of fluorogenic substrate Ac-Leu-Gly-Ser-Lys (Su)-AMC by fluorescence based analysis.
Target sequence in this assay (Q9NXA8 whole entry, the tested form may be a part): as above
Test [7] shares this target. As to the kind of experiment: Inhibition of human recombinant SIRT5 (34 to 269 residues) using Ac-Leu-Gly-Ser-Lys (Su)-AMC as fluorogenic substrate incubated for 2 hrs in presence of NAD+ at 800 uM by fluorescence based analysis.
Target sequence in this assay (Q9NXA8 whole entry, the tested form may be a part): as above
Test [8] addresses T2, NAD-dependent protein deacetylase sirtuin-1 (Homo sapiens, UniProt Q96EB6).
T2 sequence (Q96EB6 whole entry): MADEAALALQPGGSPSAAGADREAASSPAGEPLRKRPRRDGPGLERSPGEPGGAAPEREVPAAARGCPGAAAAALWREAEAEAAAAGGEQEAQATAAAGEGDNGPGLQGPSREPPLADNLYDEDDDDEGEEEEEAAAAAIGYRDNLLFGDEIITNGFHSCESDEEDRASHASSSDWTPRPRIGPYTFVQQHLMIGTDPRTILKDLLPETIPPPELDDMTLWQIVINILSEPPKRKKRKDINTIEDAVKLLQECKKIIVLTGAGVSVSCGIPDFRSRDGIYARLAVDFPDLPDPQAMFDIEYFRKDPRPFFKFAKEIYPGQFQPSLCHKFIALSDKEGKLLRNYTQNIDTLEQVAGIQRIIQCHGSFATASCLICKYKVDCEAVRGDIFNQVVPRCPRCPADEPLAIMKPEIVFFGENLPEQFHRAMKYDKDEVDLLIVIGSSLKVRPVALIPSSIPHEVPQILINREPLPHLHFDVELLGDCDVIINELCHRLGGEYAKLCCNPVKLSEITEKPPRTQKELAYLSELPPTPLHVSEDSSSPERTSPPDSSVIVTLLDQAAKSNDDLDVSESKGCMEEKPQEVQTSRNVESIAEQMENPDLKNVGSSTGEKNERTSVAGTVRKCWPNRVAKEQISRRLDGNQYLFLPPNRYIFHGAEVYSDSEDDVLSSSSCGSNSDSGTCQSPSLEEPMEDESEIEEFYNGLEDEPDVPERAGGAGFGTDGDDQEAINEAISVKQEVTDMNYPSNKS
As to the kind of experiment: Inhibition of recombinant SIRT1 (unknown origin) using Ac-Arg-Leu-Ile-Lys-(Ac) AMC as substrate in presence of NAD+.

Test [9] deals with T1, NAD-dependent protein deacylase sirtuin-5, mitochondrial. In words: Inhibition of human recombinant SIRT5 (34 to 269 residues) using Ac-Leu-Gly-Ser-Lys (Su)-AMC as fluorogenic substrate incubated for 2 hrs in presence of NAD+ at 200 uM by fluorescence based analysis.
Test [10] shares this target. In words: Binding affinity to human recombinant SIRT5 (34 to 269 residues) assessed as thermal stabilization by measuring melting temperature at 100 uM and measured after 10 mins by SYPRO orange dye based thermal shift assay.
Target sequence in this assay (Q9NXA8 37-310 limits assumed): as the sequence (Q9NXA8 37-310 limits assumed) above
The target is the same in test [11]. As to the kind of experiment: Binding affinity to human recombinant SIRT5 (34 to 269 residues) assessed as thermal stabilization by measuring melting temperature at 50 uM and measured after 10 mins by SYPRO orange dye based thermal shift assay.
Target sequence in this assay (Q9NXA8 37-310 limits assumed): as above
The target is the same in test [12]. In words: Inhibition of human recombinant SIRT5 (34 to 269 residues) using Ac-Leu-Gly-Ser-Lys (Su)-AMC as fluorogenic substrate incubated for 2 hrs in presence of NAD+ at 100 uM by fluorescence based analysis.
Test [13] addresses T3, NAD-dependent protein deacetylase sirtuin-2 (Homo sapiens, UniProt Q8IXJ6).
T3 sequence (Q8IXJ6 whole entry): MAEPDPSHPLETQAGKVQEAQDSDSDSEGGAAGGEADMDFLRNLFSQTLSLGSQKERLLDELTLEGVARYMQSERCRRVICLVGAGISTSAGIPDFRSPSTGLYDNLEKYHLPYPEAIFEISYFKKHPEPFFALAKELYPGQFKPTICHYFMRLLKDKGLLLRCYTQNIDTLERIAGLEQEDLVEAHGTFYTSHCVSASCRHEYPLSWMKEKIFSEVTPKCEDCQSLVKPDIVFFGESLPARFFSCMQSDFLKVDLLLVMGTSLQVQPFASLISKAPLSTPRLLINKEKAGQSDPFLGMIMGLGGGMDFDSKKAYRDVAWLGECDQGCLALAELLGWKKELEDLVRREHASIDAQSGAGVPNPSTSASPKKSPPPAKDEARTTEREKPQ
In words: Inhibition of human recombinant SIRT2 using Ac-Glu-Thr-Asp-Lys (Dec)-AM as substrate in presence of NAD+.

Test [14] deals with T1, NAD-dependent protein deacylase sirtuin-5, mitochondrial. As to the kind of experiment: Binding affinity to human recombinant SIRT5 (34 to 269 residues) assessed as thermal stabilization by measuring change in melting temperature at 50 uM and measured after 10 mins by SYPRO orange dye based thermal shift assay.
Target sequence in this assay (Q9NXA8 37-310 limits assumed): as the sequence (Q9NXA8 37-310 limits assumed) above
Test [15] has the same target. As to the kind of experiment: Competitive inhibition of human recombinant SIRT5 (34 to 269 residues) incubated for 2 hrs in presence of 33 uM of fluorogenic substrate Ac-Leu-Gly-Ser-Lys (Su)-AMC by fluorescence based analysis.
The target is the same in test [16]. As to the kind of experiment: Competitive inhibition of human recombinant SIRT5 (34 to 269 residues) using Ac-Leu-GlySer-Lys (Su)-AMC as substrate at 0 to 50 uM by Lineweaver-Burk plot analysis. As to conditions: dose 0-50 µM.
Target sequence in this assay (Q9NXA8 37-310 limits assumed): as the sequence (Q9NXA8 37-310 limits assumed) above
Test [17] shares this target. In words: Competitive inhibition of human recombinant SIRT5 (34 to 269 residues) incubated for 2 hrs in presence of 100 uM of fluorogenic substrate Ac-Leu-Gly-Ser-Lys (Su)-AMC by fluorescence based analysis.

The structures appear in SMILES notation. Activity calls are given as the source filed them. No cut-off for these calls is given here.

Regarding `CC(C)(C)OC(=O)[C@H](Nc1nc(NCCCNC(=S)NCCC(=O)O)nc(Nc2ccccc2Cl)n1)c1ccccc1`, the IC50 – broadly, the concentration needed to halve the response being measured – in test [1] was 21.5 µM.
Same read-out and setting: the figure for `Cc1c(Br)cccc1Nc1nc(NCCCNC(=S)NCCC(=O)O)nc(Nc2ccccc2Cl)n1` is 49.9 µM; for `O=C(O)CCNC(=S)NCCCNc1nc(Nc2ccccc2Cl)nc(NC2CCC2)n1` it is 25.1 µM; for `O=C(O)CCNC(=S)NCCCNc1nc(NCCc2ccccc2)nc(Nc2ccccc2Cl)n1` it is 6.97 µM.
Regarding `Cc1cccc(Nc2nc(NCCCNC(=S)NCCC(=O)O)nc(Nc3ccccc3Cl)n2)c1Br`, the IC50 in [1] worked out at 6.16 µM.
The same measure, in the same setting: the figure for `O=C(O)CCNC(=S)NCCCNc1nc(Nc2cc(F)cc(F)c2)nc(Nc2ccccc2Cl)n1` is 21.4 µM.
As for `COc1cc(Nc2nc(NCCCNC(=S)NCCC(=O)O)nc(Nc3ccccc3Cl)n2)cc(OC)c1`, the IC50 in test [2] was determined as 4.77 µM; in test [4], 7.93 µM; in [5], 3.48 µM; in [6] it was 42.5 µM; in test [7] it was 4.66 µM; in [1] it was 4.07 µM. Also, the IC50 in test [8] was found to be 95.9 µM; in test [9] it was 3.27 µM; in test [12], 4.83 µM; in test [13], 111 µM; in [15], 14.3 µM; in [17] it was 29.2 µM. Further, the values for the ΔTm in test [3] and in [14] were 3.29 °C and 2.91 °C, respectively. In addition, the Tm (commonly the temperature at which the thermal transition is half complete) in test [10] was 69.7 °C; in test [11] it was 69.4 °C. In addition, the inhibition entry in test [16] is “Active”.
With `O=C(O)CCNC(=S)NCCCNc1nc(Nc2ccccc2Cl)nc(N2CCCC2c2ccccc2)n1` (stereo unspecified), in test [1], the IC50 was 13 µM.
On the same count and under the same terms, under `O=C(O)CCNC(=S)NCCCNc1nc(Nc2ccccc2Cl)nc(NC2CCCC2)n1` stands 19.4 µM; under `O=C(O)CCNC(=S)NCCCNc1nc(NCc2ccccc2)nc(Nc2ccccc2Cl)n1`, 14.5 µM.
Take `CC(CCc1ccccc1)Nc1nc(NCCCNC(=S)NCCC(=O)O)nc(Nc2ccccc2Cl)n1` (stereo unspecified): in test [1], the IC50 was found to be 27 µM.
On the same count and under the same terms, under `CC[C@H](Nc1nc(NCCCNC(=S)NCCC(=O)O)nc(Nc2ccccc2Cl)n1)c1ccccc1` stands 9.43 µM.
As for `O=C(O)CCNC(=S)NCCCNc1nc(Nc2ccccc2)nc(Nc2ccccc2Cl)n1`, the IC50 in [2] is 2.27 µM; in [4] it was 3.21 µM; in test [5], 4.05 µM; in test [6], 29.6 µM; in [7] it was 6.74 µM; in test [1] it was 5.38 µM. The IC50 is 21.9 µM in test [8]; 4.68 µM in test [9]; 3.35 µM in [12]; 136 µM in [13]; 5.88 µM in [15]; 14.2 µM in test [17].
Take `O=C(O)CCNC(=S)NCCCNc1nc(Nc2ccccc2Cl)nc(NC2CC2)n1`: in test [1], the IC50 was 18.2 µM.
